Test results reported in patent US20080214517A1, “Modulation of the Expression of Estrogen Receptors for the Prevention or Treatment of Heart Disease” (priority 2003, published 2008).

B1: PDGF-BB: platelet-derived growth factor-BB, agonist used to stimulate PSMC migration and MAPK phosphorylation (protein, UniProt P01127 82-190, looked up)
Platelet-derived growth …: SLGSLTIAEPAMIAECKTRTEVFEISRRLIDRTNANFLVWPPCVEVQRCSGCCNNRNVQCRPTQVQLRPVQVRKIEIVRKKPIFKKATVTLEDHLACKCETVAAARPVT

Key:
[1] = tested on: porcine smooth muscle cells (PSMC); assay: Mitogenic assay, PSMC proliferation; format: cell-based; conditions: 17βE (10^−8 mol/L); 72 hours
Protocol: (§1) FIG. 2: Contribution of ERα and ERβ on PSMC proliferation. PSMC were seeded at 1×10^4 cells/well and stimulated with or without antisense oligomers as described in the methods. Cells were then stimulated with or without 17βE (10^−8 mol/L) and a cell count achieved 72 hours post-treatment. The values are means of cell counts obtained from 6 wells for each treatment. *, P<0.05 as compared to day 0; t, P<0.05 as compared to control (1% FBS); *, P<0.05 as compared to cells treated with 17βE (10% mol/L).
(§2) Confluent PAEC and PSMC were rinsed with DMEM and trypsinized. Cells were resuspended in 10 mL of DMEM, 5% FBS, and antibiotics, and a cell count was obtained by using a Coulter counter Z1. PAEC and PSMC were initially seeded at 1×10^4 cells/well of 24-well tissue culture plates stimulated for 24 hours in DMEM, 5% FBS, and antibiotics with or without antisense oligomers (10^−6 mol/L), and starved for 48 hours in DMEM, 0.1% FBS, and antibiotics with or without antisense oligomers (10^−6 mol/L daily) for Go synchronization. The cells were stimulated for 72 hours in DMEM, 1% FBS, antibiotics with or without antisense oligomers (10^−6 mol/L daily) and with or without of 17βE (10^−8 mol/L). After trypsinization, cell number was determined by using a Coulter counter Z1.

[2] = tested on: porcine aortic endothelial cells (PAEC); assay: Mitogenic assay, PAEC proliferation; format: cell-based; conditions: 17βE 10^−8 mol/L, compared to cells treated with FBS 1%; 3 days
Protocol: as §1, with “FIG. 5:” for “FIG. 2:”, “on PAEC” for “on PSMC”, “proliferation. PAEC” for “proliferation. PSMC”, “0; †,” for “0; t,”, “FBS); ‡,” for “FBS); *,”, “17βE (10^−8” for “17βE (10%”
as §2

[3] = tested on: porcine smooth muscle cells (PSMC); assay: Chemotactic assay (modified Boyden chamber), PSMC migration; format: cell-based; conditions: PDGF-BB 10 ng/mL
Protocol: FIG. 3: Contribution of ERα and ERβ on PSMC migration. PSMC were trypsinized and resuspended in DMEM; 2.5×10^5 cells/well of a six-well tissue culture plate were stimulated with or without antisense oligomers as described in the methods. 2.5×10^4 cells were added in the higher compartment of the modified Boyden chamber apparatus with or without antisense oligomers, and the lower chamber was filled with DMEM 1% FBS, and antibiotics with or without PDGF-BB (10 ng/ml). Five hours postincubation at 37° C., the migrated cells were fixed, stained and counted by using a microscope adapted to a digitized video camera. The values are represented as relative mean of migrating cells from 6 chambers for each treatment. *, P<0.05 as compared unstimulated cells; †, P<0.05 as compared to cells treated with PDGF-BB; ‡, P<0.05 as compared to cells treated with 17βE (10^−8 mol/L).
(§3) Cell migration was evaluated using a modified Boyden 48-well microchamber kit (NeuroProbe, Cabin John, Md.). Near confluent PAEC and PSMC were rinsed with DMEM and trypsinized. Cells were resuspended in DMEM, 5% FBS, and antibiotics, and a cell count was obtained. […] The filter was then mounted on a glass slide, and migrated cells were counted using a microscope adapted to a video camera to obtain a computer-digitized image. […]

[4] = tested on: porcine aortic endothelial cells (PAEC); assay: Chemotactic assay (modified Boyden chamber), PAEC migration; format: cell-based; conditions: 17βE 10^−8 mol/L, 5 hours, compared to cells treated with FBS 1%
Protocol: FIG. 6: Contribution of ERα and ERβ on PAEC migration. PAEC were trypsinized and resuspended in DMEM; 2.5×10^5 cells/well of a six-well tissue culture plate were stimulated with or without antisense oligomers as described in the methods. 2.5×10^4 cells were added in the higher compartment of the modified Boyden chamber apparatus with or without antisense oligomers, and the lower chamber was filled with DMEM 1% FBS, and antibiotics with or without 17βE (10^−8 mol/L). Five hours postincubation at 37° C., the migrated cells were fixed, stained and counted by using a microscope adapted to a digitized video camera. The values are represented as relative mean of migrating cells/mm^2 from 6 chambers for each treatment. *, P<0.05 as compared to unstimulated cells; t, P<0.05 as compared to cells treated with 17βE (10^−8 mol/L).
as §3

[5] = tested on: p42/44 MAPK phosphorylation; assay: Western blot of p42/44 MAPK phosphorylation in PSMC; format: cell-based, porcine; conditions: PDGF-BB stimulation 5 minutes; 17βE 10^−8 mol/L 30-minute pretreatment
Protocol: (§4) FIG. 4: Contribution of ERα and ERβ on p42/44 and p38 MAPK activation in PSMC. PSMC were seeded at 1×10^6 cells/100-mm culture plate and grown to confluence. Cells were treated either with antisense or scrambled oligomers as described in the methods. Cells were then treated with or without 17βE (10^−8 mol/L) for 30 minutes and stimulated 5 minutes for p42/44 MAPK (A) or 30 minutes for p38 MAPK (B) with PDGF-BB. Proteins were detected by Western blot analyses. Image densitometry results are given as relative expression (%) as compared to control PBS-treated cells.
(§5) The efficiency and specificity of our antisense oligomers to prevent the expression of targeted proteins were evaluated by Western blot analyses. Culture medium of confluent PAEC and PSMC (100-mm tissue culture plate) was removed, the cells were rinsed with Dulbecco's modified eagle medium (DMEM; Life Technologies Inc., Carlsbad, Calif.) and trypsinized (trypsine-EDTA; Life Technologies). Cells were resuspended in DMEM containing 5% of fetal bovine serum (FBS) (Hyclone Laboratories, Logan, Utah) and antibiotics (penicillin and streptomycin, Sigma, St-Louis, Mo.), and a cell count was obtained with a Coulter counter Z1 (Coulter Electronics, Luton, UK). […] Plates were incubated at 4° C. for 30 minutes and scraped, and the protein concentration was determined with a Bio-Rad protein assay kit (Bio-Rad, Hercules, Calif.). […]

[6] = tested on: p38 MAPK phosphorylation; assay: Western blot of p38 MAPK phosphorylation in PSMC; format: cell-based, porcine; conditions: PDGF-BB stimulation 30 minutes; 17βE 10^−8 mol/L 30-minute pretreatment
Protocol: as §4, §5

[7] = tested on: p42/44 MAPK phosphorylation; assay: Western blot of p42/44 MAPK phosphorylation in PAEC; format: cell-based, porcine; conditions: 17βE 10^−8 mol/L, 5 minutes; vs PBS-treated PAEC
Protocol: (§6) FIG. 7: Contribution of ERα and ERβ on p42144 and p38 MAPK activation in PAEC. PAEC were seeded at 1×10^6 cells/100-mm culture plate and grown to confluence. Cells were treated either with antisense or scrambled oligomers as described in the methods. Cells were then treated with or without 17βE (10^−8 mol/L) for 5 minutes for p42/44 MAPK activation (A) or 30 minutes for p38 MAPK stimulation (B). Proteins were detected by Western blot analyses. Image densitometry results are given as relative expression (%) as compared to control PBS-treated cells.
as §5

[8] = tested on: p38 MAPK phosphorylation; assay: Western blot of p38 MAPK phosphorylation in PAEC; format: cell-based, porcine; conditions: 17βE, 30 minutes stimulation; vs PBS-treated PAEC
Protocol: as §6, §5

[9] = local delivery following coronary angioplasty in pigs; cited from earlier work

Row | Molecule | prevention of PSMC proliferation mediated by FBS 1% [1] [%] | enhancement of PAEC proliferation [2] [%] | inhibition of the chemotactic effect of PDGF-BB on PSMC (in words) ([3]; 17βE 10^−8 mol/L) | promotion of PAEC migration [4] [%] | p42/44 MAPK phosphorylation in PSMC (in words) [5] | p38 MAPK phosphorylation in PSMC (in words) [6] | increase of p42/44 MAPK phosphorylation in PAEC [7] [%] | increase of p38 MAPK phosphorylation in PAEC [8] [%] | endothelial NO synthase (eNOS) expression (in words) [9] | neointimal formation (in words) [9] | reendothelialization process (in words) [9] | increase of basal migration of PSMC ([3]; 5 hours, compared to cells treated with FBS 1%) [%]
1 | C[C@]12CC[C@@H]3c4ccc(O)cc4CC[C@H]3[C@@H]1CC[C@@H]2O [17βE, 17-beta-estradiol] | 95 | 123 | inhibited completely | 363 | reversed | reversed | 317 | 254 | improving | reducing | improving | –
2 | B1 | – | – | – | – | increased | increased | – | – | – | – | – | 141
